Experimental data taken from patent US20110020312A1, “METHODS FOR TREATMENT OF METABOLIC DISORDERS USING EPIMETABOLIC SHIFTERS, MULTIDIMENSIONAL INTRACELLULAR MOLECULES, OR ENVIRONMENTAL INFLUENCERS” (priority 2009, published 2011).

Test system: HepG2 (liver cancer) cells
Assay: PCR Diabetes Array
Format: cell-based
Method: The treatment was initiated on 1×10^5 cells per well, following the procedure utilized in the PaCa2 cells (above, Examples 9-11). However, the total amount of RNA that was extracted from these samples was lower than expected. Reverse transcription is normally done using 1 μg of total RNA (determined by measurement at 260 nm). The maximum volume that can be used per reverse transcription is 8 μl.

SMILES: COC1=C(OC)C(=O)C(C/C=C(\C)CC/C=C(\C)CC/C=C(\C)CC/C=C(\C)CC/C=C(\C)CC/C=C(\C)CC/C=C(\C)CC/C=C(\C)CC/C=C(\C)CCC=C(C)C)=C(C)C1=O [Q10, Coenzyme Q10]
- PPARGC1A mRNA downregulated (100 μM Q10, 16 hours): approximately 20 fold
- PRKAA1 mRNA downregulated (100 μM Q10, 16 hours): ~6 fold
- SNAP25 mRNA downregulated (100 μM Q10, 16 hours): ~5 fold
- PPARGC1A mRNA (100 μM Q10, 48 hours): normalized or were slightly upregulated
- PRKAA1 mRNA (100 μM Q10, 48 hours): normalized or were slightly upregulated
- SNAP25 mRNA downregulated (100 μM Q10, 48 hours): approximately 2 fold
